Patent US11780839B2, “Compounds for treating Huntington's disease” (PTC THERAPEUTICS, INC., priority 2018, dated 2023)

Tested on: Endogenous Huntingtin Protein
Experiment: Endogenous Huntingtin Protein Assay (ELISA-based Meso Scale Discovery electrochemiluminescence)
Assay type: cell-based
Conditions: MSD electrochemiluminescence, Table 1
In short: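 Sandwich MSD electrochemiluminescence immunoassay. Capture used MW1 (expanded polyglutamine) or MAB2166 antibody coated at 1 μg/mL overnight at 4 °C. Samples were bound overnight at 4 °C, then a rabbit monoclonal detection antibody and SULFO-TAG anti-rabbit, each at 0.25 μg/mL, were applied for 1 h at room temperature.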

SMILES | IC50
CN(c1ncc(-c2ccc(-n3ncc(CO)n3)cc2O)nn1)C1CC(C)(C)NC(C)(C)C1 [Cpd 172, 5-[4-(hydroxymethyl)-2H-1,2,3-triazol-2-yl]-2-{3-[methyl(2,2,6,6-tetramethylpiperidin-4-yl)amino]-1,2,4-triazin-6-yl}phenol] | ≤ 100 nM
CC(C)(C)NC1CCCN(c2ncc(-c3ccc(-c4cn[nH]c4)cc3O)nn2)C1 (stereo not shown) [Cpd 212, 2-{3-[3-(tert-butylamino)piperidin-1-yl]-1,2,4-triazin-6-yl}-5-(1H-pyrazol-4-yl)phenol] | 100 to 500 nM
Cc1ncc(-c2ccc(-c3cnc(N4CCC(NC(C)C)C4)nn3)c(O)c2)o1 (stereo not drawn) [Cpd 289, 5-(2-methyl-1,3-oxazol-5-yl)-2-(3-{3-[(propan-2-yl)amino]pyrrolidin-l-yl}-1,2,4-triazin-6-yl)phenol] | ≤ 100 nM
CN(c1ncc(-c2ccc(-c3cncnc3)cc2O)nn1)C1CC(C)(C)NC(C)(C)C1 [Cpd 86, 2-{3-[methyl(2,2,6,6-tetramethylpiperidin-4-yl)amino]-1,2,4-triazin-6-yl}-5-(pyrimidin-5-yl)phenol] | 100 to 500 nM
CN(c1ncc(-c2ccc(-c3ncnc(O)n3)cc2O)nn1)C1CC(C)(C)NC(C)(C)C1 [Cpd 33, 4-(3-hydroxy-4-{3-[methyl(2,2,6,6-tetramethylpiperidin-4-yl)amino]-1,2,4-triazin-6-yl}phenyl)-1,3,5-triazin-2-ol] | 1000 to 3000 nM
CN(c1ncc(-c2ccc(-c3cn[nH]c3)cc2O)nn1)C1CCNCC1 [Cpd 19, 2-{3-[methyl(piperidin-4-yl)amino]-1,2,4-triazin-6-yl}-5-(1H-pyrazol-4-yl)phenol] | ≤ 100 nM
CC1(C)CC(Oc2ncc(-c3ccc(-c4c[nH]nc4F)cc3O)nn2)CC(C)(C)N1 [Cpd 72, 5-(3-fluoro-1H-pyrazol-4-yl)-2-{3-[(2,2,6,6-tetramethylpiperidin-4-yl)oxy]-1,2,4-triazin-6-yl}phenol] | ≤ 100 nM
CN(c1cnc(-c2ccc(-c3cnn(C)c3)cc2O)nn1)C1CC(C)(C)NC(C)(C)C1 [Cpd 196, 5-(1-methyl-1H-pyrazol-4-yl)-2-{6-[methyl(2,2,6,6-tetramethylpiperidin-4-yl)amino]-1,2,4-triazin-3-yl}phenol] | ≤ 100 nM
CN(c1ncc(-c2ccc(-c3cc(=O)n(C)cn3)cc2O)nn1)C1CC(C)(C)NC(C)(C)C1 [Cpd 146, 6-(3-hydroxy-4-{3-[methyl(2,2,6,6-tetramethylpiperidin-4-yl)amino]-1,2,4-triazin-6-yl}phenyl)-3-methylpyrimidin-4(3H)-one] | ≤ 100 nM
CC(C)N[C@@H]1CCN(c2ncc(-c3ccc(-c4cn[nH]c4)cc3O)nn2)C1 [Cpd 348, 2-(3-{(3R)-3-[(propan-2-yl)amino]pyrrolidin-l-yl}-1,2,4-triazin-6-yl)-5-(1H-pyrazol-4-yl)phenol] | ≤ 100 nM
COc1cc(-c2ccc(-c3cnc(N[C@H]4CC(C)(C)NC(C)(C)[C@H]4F)nn3)c(O)c2)ncn1 [Cpd 290, 2-(3-{[(3S,4S)-3-fluoro-2,2,6,6-tetramethylpiperidin-4-yl]amino}-1,2,4-triazin-6-yl)-5-(6-methoxypyrimidin-4-yl)phenol] | ≤ 100 nM
CC12CC3CC(C)(C1)CC(NC1CCN(c4ncc(-c5ccc(-c6cn[nH]c6)cc5O)nn4)C1)(C3)C2 (stereo not shown) [Cpd 160, 2-(3-{3-[(3,5-dimethyladamantan-1-yl)amino]pyrrolidin-1-yl}-1,2,4-triazin-6-yl)-5-(1H-pyrazol-4-yl)phenol] | 1000 to 3000 nM
Cc1cc(-c2ccc(-c3cnc(N(C)C4CC(C)(C)NC(C)(C)C4)nn3)c(O)c2)nn2ccnc12 [Cpd 303, 5-(8-methylimidazo[1,2-b]pyridazin-6-yl)-2-{3-[methyl(2,2,6,6-tetramethylpiperidin-4-yl)amino]-1,2,4-triazin-6-yl}phenol] | ≤ 100 nM
CN(c1ncc(-c2ccc(-c3c[nH]nc3F)cc2O)nn1)C1CC(C)(C)NC(C)(C)C1 [Cpd 12, 5-(3-fluoro-1H-pyrazol-4-yl)-2-{3-[methyl(2,2,6,6-tetramethylpiperidin-4-yl)amino]-1,2,4-triazin-6-yl}phenol] | ≤ 100 nM
CN(c1ncc(-c2ccc(-c3ccc4[nH]cnc4c3)cc2O)nn1)C1CC(C)(C)NC(C)(C)C1 [Cpd 131, 5-(1H-benzimidazol-5-yl)-2-{3-[methyl(2,2,6,6-tetramethylpiperidin-4-yl)amino]-1,2,4-triazin-6-yl}phenol] | ≤ 100 nM
CN1CCC2(CC1)CN(c1ncc(-c3ccc(-c4c[nH]nc4F)cc3O)nn1)C2 [Cpd 149, 5-(3-fluoro-1H-pyrazol-4-yl)-2-[3-(7-methyl-2,7-diazaspiro[3.5]nonan-2-yl)-1,2,4-triazin-6-yl]phenol] | ≤ 100 nM
CNC1CCN(c2ncc(-c3ccc(-n4cc(F)cn4)cc3O)nn2)C1 (stereo not shown) [Cpd 219, 5-(4-fluoro-1H-pyrazol-1-yl)-2-{3-[3-(methylamino)pyrrolidin-1-yl]-1,2,4-triazin-6-yl}phenol] | 100 to 500 nM
CN1CCC2(CC1)CN(c1ncc(-c3ccc(-c4ccn(C)n4)cc3O)nn1)C2 [Cpd 233, 2-[3-(7-methyl-2,7-diazaspiro[3.5]nonan-2-yl)-1,2,4-triazin-6-yl]-5-(1-methyl-1H-pyrazol-3-yl)phenol] | 1000 to 3000 nM
CN(c1ncc(-c2ccc(-n3nccn3)cc2O)nn1)C1CC(C)(C)NC(C)(C)C1 [Cpd 63, 2-{3-[methyl(2,2,6,6-tetramethylpiperidin-4-yl)amino]-1,2,4-triazin-6-yl}-5-(2H-1,2,3-triazol-2-yl)phenol] | ≤ 100 nM
CN(c1ncc(-c2ccc(-c3cnn(C)n3)cc2O)nn1)C1CC(C)(C)NC(C)(C)C1 [Cpd 23, 2-{3-[methyl(2,2,6,6-tetramethylpiperidin-4-yl)amino]-1,2,4-triazin-6-yl}-5-(2-methyl-2H-1,2,3-triazol-4-yl)phenol] | ≤ 100 nM
CCN(CC)C1C2CN(c3ncc(-c4ccc(-c5cn[nH]c5)cc4O)nn3)CC21 (stereo not shown) [Cpd 127, 2-{3-[6-(diethylamino)-3-azabicyclo[3.1.0]hexan-3-yl]-1,2,4-triazin-6-yl}-5-(1H-pyrazol-4-yl)phenol] | 100 to 500 nM
Cn1ccc(-c2ccc(-c3cnc(NC4CC(C)(C)NC(C)(C)C4)nn3)c(O)c2)n1 [Cpd 253, 5-(1-methyl-1H-pyrazol-3-yl)-2-{3-[(2,2,6,6-tetramethylpiperidin-4-yl)amino]-1,2,4-triazin-6-yl}phenol] | ≤ 100 nM
CNC1CCN(c2ncc(-c3ccc(-c4cnn(C)c4)cc3O)nn2)C1 (stereo not drawn) [Cpd 205, 2-{3-[3-(methylamino)pyrrolidin-l-yl]-1,2,4-triazin-6-yl}-5-(1-methyl-1H-pyrazol-4-yl)phenol] | ≤ 100 nM
CN1CCC2(CC1)CN(c1ncc(-c3ccc(-c4ncns4)cc3O)nn1)C2 [Cpd 272, 2-[3-(7-methyl-2,7-diazaspiro[3.5]nonan-2-yl)-1,2,4-triazin-6-yl]-5-(1,2,4-thiadiazol-5-yl)phenol] | 100 to 500 nM
CN(c1ncc(-c2ccc(-c3nnco3)cc2O)nn1)C1CC(C)(C)NC(C)(C)C1 [Cpd 106, 2-{3-[methyl(2,2,6,6-tetramethylpiperidin-4-yl)amino]-1,2,4-triazin-6-yl}-5-(1,3,4-oxadiazol-2-yl)phenol] | ≤ 100 nM
CN(c1ncc(-c2ccc(-c3cnn(C)c3)cc2O)nn1)C1CC(C)(C)NC(C)(C)C1 [Cpd 16] | ≤ 100 nM

Other lines, results leading:

IC50 | SMILES
≤ 100 nM | CC(C)(C)NC1CCN(c2cnc(-c3ccc(-c4c[nH]nc4F)cc3O)nn2)C1 (stereo not shown) [Cpd 374, 2-{6-[3-(tert-butylamino)pyrrolidin-1-yl]-1,2,4-triazin-3-yl}-5-(3-fluoro-1H-pyrazol-4-yl)phenol]
≤ 100 nM | CC(C)(C)NCC1CCN(c2ncc(-c3ccc(-c4cn[nH]c4)cc3O)nn2)C1 (stereo not shown) [Cpd 390, 2-(3-{3-[(tert-butylamino)methyl]pyrrolidin-1-yl}-1,2,4-triazin-6-yl)-5-(1H-pyrazol-4-yl)phenol]
≤ 100 nM | CNCC1CCN(c2ncc(-c3ccc(-c4cn[nH]c4)cc3O)nn2)C1 (stereo not shown) [Cpd 413, 2-(3-{3-[(methylamino)methyl]pyrrolidin-1-yl}-1,2,4-triazin-6-yl)-5-(1H-pyrazol-4-yl)phenol]
≤ 100 nM | Oc1cc(-c2cn[nH]c2)ccc1-c1cnc(N2CC[C@@H](NC3CCC3)C2)nn1 [Cpd 399, 2-{3-[(3R)-3-(cyclobutylamino)pyrrolidin-1-yl]-1,2,4-triazin-6-yl}-5-(1H-pyrazol-4-yl)phenol]
≤ 100 nM | CC1(C)CC(Nc2ncc(-c3ccc(-c4cn5ccncc5n4)cc3O)nn2)CC(C)(C)N1 [Cpd 359, 5-(imidazo[1,2-a]pyrazin-2-yl)-2-{3-[(2,2,6,6-tetramethylpiperidin-4-yl)amino]-1,2,4-triazin-6-yl}phenol]
≤ 100 nM | CC1(C)CC(Nc2ncc(-c3ccc(-c4ncco4)cc3O)nn2)CC(C)(C)N1 [Cpd 352, 5-(1,3-oxazol-2-yl)-2-{3-[(2,2,6,6-tetramethylpiperidin-4-yl)amino]-1,2,4-triazin-6-yl}phenol]
≤ 100 nM | CNC1CCN(c2ncc(-c3ccc(-c4cnc(C)o4)cc3O)nn2)C1 (stereo not drawn) [Cpd 350, 2-{3-[3-(methylamino)pyrrolidin-l-yl]-1,2,4-triazin-6-yl}-5-(2-methyl-1,3-oxazol-5-yl)phenol]
100 to 500 nM | CNC1CCN(c2ncc(-c3ccc(-c4ncco4)cc3O)nn2)C1 (stereo not drawn) [Cpd 358, 2-{3-[3-(methylamino)pyrrolidin-l-yl]-1,2,4-triazin-6-yl}-5-(1,3-oxazol-2-yl)phenol]
≤ 100 nM | Cn1nnc(-c2ccc(-c3cnc(N[C@H]4CC(C)(C)NC(C)(C)[C@H]4F)nn3)c(O)c2)n1 [Cpd 291, 2-(3-{[(3S,4S)-3-fluoro-2,2,6,6-tetramethylpiperidin-4-yl]amino}-1,2,4-triazin-6-yl)-5-(2-methyl-2H-tetrazol-5-yl)phenol]
1000 to 3000 nM | CNC1CCN(c2ncc(-c3ccc(-c4ccn(C)n4)cc3O)nn2)C1 (stereo not shown) [Cpd 296, 2-{3-[3-(methylamino)pyrrolidin-1-yl]-1,2,4-triazin-6-yl}-5-(1-methyl-1H-pyrazol-3-yl)phenol]
≤ 100 nM | Cn1ncc2cc(-c3ccc(-c4cnc(NC5CC(C)(C)NC(C)(C)C5)nn4)c(O)c3)cnc21 [Cpd 321, 5-(1-methyl-1H-pyrazolo[3,4-b]pyridin-5-yl)-2-{3-[(2,2,6,6-tetramethylpiperidin-4-yl)amino]-1,2,4-triazin-6-yl}phenol]
